Laboratory results published in patent US8497278B2, “Imidazo[1,2-a]pyridine compounds” (priority 2008, dated 2013).

Assays:
[1] = target: T1, α1 subtype containing GABA-A receptors (Homo sapiens, UniProt P14867+P18507); experiment: Two-electrode voltage clamp electrophysiology in Xenopus oocytes, potentiation of GABA EC20 response, α1; assay type: cell-based; details: 100 nM compound; for activation at 0.1 µM: read-out: Percentage of potentiation alpha1
T1 construct: expressed in transfected cells; host or cells: Xenopus laevis oocytes, cRNA injected
T1 sequence (P14867 28-456): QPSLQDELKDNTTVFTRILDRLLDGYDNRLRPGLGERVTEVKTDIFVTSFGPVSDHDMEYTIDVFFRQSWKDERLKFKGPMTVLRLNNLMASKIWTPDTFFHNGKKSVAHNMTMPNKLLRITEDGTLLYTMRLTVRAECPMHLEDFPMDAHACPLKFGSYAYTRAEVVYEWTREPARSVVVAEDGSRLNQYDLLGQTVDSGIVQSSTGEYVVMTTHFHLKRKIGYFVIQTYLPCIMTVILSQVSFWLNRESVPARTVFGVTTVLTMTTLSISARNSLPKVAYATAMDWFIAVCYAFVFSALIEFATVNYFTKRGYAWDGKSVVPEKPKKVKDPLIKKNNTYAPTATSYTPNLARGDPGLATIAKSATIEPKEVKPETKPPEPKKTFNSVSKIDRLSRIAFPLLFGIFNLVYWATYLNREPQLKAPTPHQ
T1 sequence (P28472 26-473 partner): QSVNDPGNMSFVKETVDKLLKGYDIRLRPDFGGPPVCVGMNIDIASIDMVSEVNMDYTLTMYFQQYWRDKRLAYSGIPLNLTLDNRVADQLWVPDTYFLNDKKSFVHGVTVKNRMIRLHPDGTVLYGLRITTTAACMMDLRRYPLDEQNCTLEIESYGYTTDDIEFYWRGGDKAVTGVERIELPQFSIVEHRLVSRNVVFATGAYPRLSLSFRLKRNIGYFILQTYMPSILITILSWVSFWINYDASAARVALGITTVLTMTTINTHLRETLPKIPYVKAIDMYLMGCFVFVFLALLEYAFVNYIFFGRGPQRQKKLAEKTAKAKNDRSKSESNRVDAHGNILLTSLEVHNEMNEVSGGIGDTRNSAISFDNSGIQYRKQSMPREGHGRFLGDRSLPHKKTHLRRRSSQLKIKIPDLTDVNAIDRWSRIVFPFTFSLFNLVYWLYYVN
T1 sequence (P18507 40-475): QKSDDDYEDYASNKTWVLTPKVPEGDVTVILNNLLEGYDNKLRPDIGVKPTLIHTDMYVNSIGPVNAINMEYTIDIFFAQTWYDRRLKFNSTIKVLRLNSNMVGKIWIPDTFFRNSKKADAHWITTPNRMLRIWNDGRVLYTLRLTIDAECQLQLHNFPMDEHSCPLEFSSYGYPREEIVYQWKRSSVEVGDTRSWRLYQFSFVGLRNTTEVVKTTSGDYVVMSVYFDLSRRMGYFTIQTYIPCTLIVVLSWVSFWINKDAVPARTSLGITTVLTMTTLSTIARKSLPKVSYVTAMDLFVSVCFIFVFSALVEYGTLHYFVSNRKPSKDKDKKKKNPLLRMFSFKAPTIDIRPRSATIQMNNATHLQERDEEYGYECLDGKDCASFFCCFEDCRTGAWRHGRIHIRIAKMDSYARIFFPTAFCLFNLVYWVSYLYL
Outline: (§1)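 TEVC, oocytes expressing human αx/β3/γ2L GABA-A; Vh −80 mV; ND96 pH 7.5 perfusion. 3 × 20-s GABA EC20 (60 μM) baseline → 1 μM CDP standard → compound 100 nM. Low-current or poorly γ2L-incorporating oocytes excluded.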

[2] = target: T2, α3 subtype containing GABA-A receptors (Homo sapiens, UniProt P18507+P34903); experiment: Two-electrode voltage clamp electrophysiology in Xenopus oocytes, potentiation of GABA EC20 response, α3; assay type: cell-based; details: 100 nM compound, read-out: Percentage of potentiation alpha3
T2 construct: expressed in transfected cells; host or cells: Xenopus laevis oocytes, cRNA injected
T2 sequence (P34903 29-492): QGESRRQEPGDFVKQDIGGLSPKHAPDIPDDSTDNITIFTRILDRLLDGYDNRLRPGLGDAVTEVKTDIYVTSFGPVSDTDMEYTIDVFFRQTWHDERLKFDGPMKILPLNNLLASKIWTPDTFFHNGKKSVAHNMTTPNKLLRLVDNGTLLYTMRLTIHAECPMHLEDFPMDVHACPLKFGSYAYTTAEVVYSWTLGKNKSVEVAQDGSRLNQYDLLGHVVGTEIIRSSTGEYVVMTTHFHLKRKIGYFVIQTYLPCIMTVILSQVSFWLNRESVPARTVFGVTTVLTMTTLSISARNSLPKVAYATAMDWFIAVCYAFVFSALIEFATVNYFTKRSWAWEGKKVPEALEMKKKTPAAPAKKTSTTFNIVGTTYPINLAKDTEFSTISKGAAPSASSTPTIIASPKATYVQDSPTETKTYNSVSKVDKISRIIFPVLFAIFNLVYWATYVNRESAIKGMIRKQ
T2 sequence (P28472 26-473 partner): as the sequence (P28472 26-473 partner) above
T2 sequence (P18507 40-475): as the sequence (P18507 40-475) above
Procedure: Electrophysiology protocol: Oocytes were prepared from adult female Xenopus laevis frogs. cRNA encoding human α1, α2, α3, α5, β3 and γ2L GABAA receptor subunits was injected into the cytoplasm of stage 5 or 6 oocytes using the Robocyte Robot (Multi Channel Systems, Reutlingen, Germany). Two-electrode voltage clamp recordings were made in 96-well plates using the Robocyte Robot. Oocytes were impaled using recording heads with two glass electrodes containing 1.5 M potassium acetate and 0.5 M KCl and held at a membrane potential of −80 mV. Oocytes were continually perfused with a ND96 solution (96 mM NaCl, 2 mM KCl, 0.1 mM CaCl2, and 5 mM HEPES, pH 7.5) using a Gilson 222 XL Liquid Handler and Gilson Minipuls 3 Peristaltic Pump (Gilson Medical Electronics, Middleton, Wis., USA). The protocol consisted of three 20-s applications of GABA that gave a 20% of the maximum response (EC20: 60 μM) to allow for headroom to determine a baseline GABA response. To assess the potentiation, oocytes were first exposed to a single 1 μM chlordiazepoxide (CDP) as a potentiation standard. Oocytes with insufficient expression levels (currents below threshold) or insufficient γ2L subunit incorporation (judged by rapid desensitization upon GABA application, or by insufficient potentiation by CDP) were not included in analysis. Following this control application, a given oocyte was exposed to test compounds at 100 nM concentrations. Only one concentration of one compound was tested per oocyte. […] One skilled in the art will recognize that subtypes contribute to the effects of GABA-A modulators. Such that compounds favoring different subtypes can have different therapeutic effects. The magnitude of modulation, for example, partial modulators can influence the effects in vivo. “++” indicates a greater modulation that “+” so that at any given subtype “++” inducates a greater amount of modulation for that subtype. In some embodiments, modulation favoring alpha 1 relative to alpha2 and/or alpha 3 can have sedative hypnotic effects. In other embodiments, compounds with reduced selectivity of alpha 1 can express anxiolytic effects with less sedation. Compounds with selectivity for alpha 5 can have memory/cognition enhancing effects.

[3] = system: central benzodiazepine receptors; experiment: Central benzodiazepine receptor binding (test of Speth et al.); details: 1000 nM of the compound
Outline: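 Values are percent inhibition of central benzodiazepine receptor binding at 1000 nM compound (initial single-point screen at 1.0E-09, 1.0E-07 and 1.0E-05 M). Speth et al. binding test; nonspecific binding defined with excess unlabelled ligand and subtracted from total.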

[4] = target: T3, α2 subtype containing GABA-A receptors (Homo sapiens, UniProt P18507+P47869); experiment: Two-electrode voltage clamp electrophysiology in Xenopus oocytes, potentiation of GABA EC20 response, α2; assay type: cell-based; details: 100 nM compound; for activation at 0.1 µM: read-out: Percentage of potentiation alpha2
T3 construct: expressed in transfected cells; host or cells: Xenopus laevis oocytes, cRNA injected
T3 sequence (P47869 29-451): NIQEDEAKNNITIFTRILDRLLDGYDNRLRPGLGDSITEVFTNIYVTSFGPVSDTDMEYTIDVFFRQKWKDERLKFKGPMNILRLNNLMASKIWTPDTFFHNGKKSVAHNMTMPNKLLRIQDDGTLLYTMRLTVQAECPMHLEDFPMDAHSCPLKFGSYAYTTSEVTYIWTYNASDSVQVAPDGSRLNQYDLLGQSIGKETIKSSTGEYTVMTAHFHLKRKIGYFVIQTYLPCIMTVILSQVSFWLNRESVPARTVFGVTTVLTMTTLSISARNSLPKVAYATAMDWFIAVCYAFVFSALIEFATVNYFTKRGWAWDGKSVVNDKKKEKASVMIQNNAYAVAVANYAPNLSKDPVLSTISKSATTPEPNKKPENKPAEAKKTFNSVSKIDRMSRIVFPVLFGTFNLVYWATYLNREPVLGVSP
T3 sequence (P28472 26-473 partner): as the sequence (P28472 26-473 partner) above
T3 sequence (P18507 40-475): as the sequence (P18507 40-475) above
Outline: as §1

[5] = system: Swiss Webster (CFW) mice; experiment: Four Plate Test (FPT); assay type: in vivo; details: mouse, 30 min before test, 2 min session
Excerpt: Four Plate Test (FPT) Protocol: The four plate test (FPT) is an animal model of anxiety in which simple ongoing behavior (exploration of novel surroundings) is suppressed by the delivery of mild electric foot-shock contingent to quadrant crossing (Aron, et al., 1971). Clinically effective classes of anxiolytic compounds such as benzodiazepines, selective serotonin reuptake inhibitors, or 5-HT1A receptor agonists produce a marked anti-punishment effect (an increase in punished crossings), which is thought to indicate anxiolytic activity (Aron, et al., 1971; Bourin, et al., 1992; Hascoet, et al., 2000; Ring, et al., 2006). The four plate apparatus (Bioseb, Chaville France) consists of a cage (18×25×16 cm) floored by four identical rectangular metal plates (8×11 cm) separated from one another by a gap of 4 mm. The plates are connected to a shocker unit that can generate electric foot shocks.
Male Swiss Webster (CFW) mice from Charles River (Wilmington, Mass.) were used for the FPT. Mice were received at 3-weeks of age. Upon receipt, mice were assigned unique identification numbers (tail marked) and were group housed with 4 mice per cage in mouse ventilated racks. All animals remained housed in groups of four during the remainder of the study. All mice were acclimated to the colony room for at least one week prior to testing and were subsequently tested at an average age of 4 weeks of age. During the period of acclimation, mice […] were examined on a regular basis, handled, and weighed to assure adequate healtH, D and suitability. Animals were maintained on a 12/12 light/dark cycle. The room temperature was maintained between 20 and 23° C. with a relative humidity maintained between 30% and 70%. Chow and water were provided ad libitum for the duration of the study. In each test, animals were randomly assigned across treatment groups. Alprazolam (0.3 mg/kg) was used as the positive control. Compounds of the present invention, vehicle (45% hydroxypropyl beta-cyclodextrin) and alprazolam were administered orally to all groups (n=10 mice per group) 30 minutes prior to behavioral testing. Following pretreatment, mice were gently placed in the four plate chamber and allowed to explore the enclosure for 18 seconds. After the exploration period, every time the mouse crossed from one plate to another, the experimenter, blind to the dosing conditions, administered a mild electric foot-shock, and referred to as a punished crossing. The intensity and duration of the foot-shock were 0.5 mA for 0.5 seconds. The number of punished crossings was recorded during the 2 min test session. The plates were thoroughly cleaned with 70% ethanol immediately after each mouse. All data were analyzed using an analysis of variance (ANOVA) followed by Fisher's PLSD post hoc test. An effect was considered significance if p<0.05. Statistical outliers above or below 2 standard deviations from the mean in any of the […] were removed from the final analysis.

[6] = system: rhesus monkeys; experiment: Rhesus monkey conflict test; assay type: in vivo; details: cumulative dosing
Excerpt: Conflict protocol: The conflict procedure is a well established operant conditioning approach to evaluate anxiolytic-like effects of test compounds. In this procedure, positively-reinforced behavior is suppressed by response-contingent administration of a noxious stimulus (i.e., mild electric shock). Compounds with anxiolytic effects in humans (e.g., benzodiazepines) characteristically increase rates of responding that are suppressed by shock and are referred to as anti-conflict or anxiolytic-like effects. […] In addition to anxiolytic-like effects, conflict procedures also provide an assessment of the ability of the animal to perform operant lever pressing. This is typically assessed by including lever pressing in the absence of the noxious stimulus. Most anxiolytic compounds will decrease rates of responding in the absence of shock at doses higher than those that induce anxiolytic-like effects. The effects contributing to anxiolytic-induced decreases in non-suppressed responding are not well understood, but likely consist of a combination of motor co-ordination deficits and sedative effects.
Adult rhesus monkeys were used in these studies (n=1-4). Weights of the monkeys ranged from 6.2 to 10.5 kg. The animals had been previously trained using the conflict procedure. Animals were maintained at 85-95% of their free-feeding weights by manipulation of food intake. Monkeys were individually housed with water available ad libitum, and maintained on a 12 hour lights-on/12 hour lights-off cycle (lights on at 0600 a.m.). Monkeys received Harlan Teklad diet (15% Primate Diet) as well as supplemental feeding (fruits, vegetables, and commercially available primate treats) daily. They were also given toys and video enrichment when not in an experimental session. Each animal was prepared prior to the study with a chronic indwelling venous catheter for drug delivery. A polyvinyl chloride catheter was implanted in a jugular, femoral or brachial vein under isoflurane anesthesia and aseptic conditions. The proximal end of the catheter terminated above the right atrium, and the distal end was passed subcutaneously to exit in the midscapular region. Experimental sessions began 5-7 days following surgery. Catheters had been implanted approximately 3 months to 1 year prior to the initiation of the study. During experimental sessions, monkeys were seated in primate chairs that were placed in ventilated sound-attenuating chambers. A single response lever was mounted on the wall of the chamber in front of the monkey. Each press of a lever produced an audible click and was recorded as a response via electromechanical equipment, a computer interface, and PC with specialized software. Food pellets could be delivered into a tray located next to the lever. Mild electric shock could be delivered to the bottom of the feet via brass electrodes that were fitted to shoes. Red and green lights mounted above the levers could be illuminated to serve as visual stimuli.
Monkeys were trained under a multiple schedule of food reinforcement adapted from Spealman (1979). A daily session consisted of 4 cycles, each preceded by a 10-min time out period in which all lights in the chamber were off and responding had no programmed consequences. Each cycle consisted of two components, component 1 and 2. Component 1 was signaled by red stimulus lights and consisted of an 18-response schedule (FR18) of food pellet delivery (i.e., the animal receives a food pellet following 18 responses). Component 2, signaled by green stimulus lights, followed immediately and consisted of the FR18 schedule of food delivery combined with a FR20 schedule of foot shock delivery (1.5-3.0 mA, adjusted for each monkey based on individual performance, 0.25 sec duration). Delivery of a food pellet (FR18 schedule) was followed by a 10 sec time out in which responses had no programmed consequences. […]

SMILES | activation at 0.1 µM [1] | activation at 0.1 µM [2] | % Inhibition at 1000 nM for CBZD [3] | activation at 0.1 µM [4] | Percentage of potentiation alpha1 [1] | Number of Punished Crossings Mean ± S.E.M. ([5]; 3 mg/kg PO) | Number of Punished Crossings Mean ± S.E.M. ([5]; 10 mg/kg PO) | Number of Punished Crossings Mean ± S.E.M. ([5]; 30 mg/kg PO) | Percentage of potentiation alpha2 [4] | also measured
CN1CC[C@@H](Oc2ccnc(NCc3c(-c4ccc(F)cc4)nc4ccc(Cl)cn34)n2)C1 [Compound 183, (R)—N-((6-chloro-2-(4-fluorophenyl)imidazo[1,2-a]pyridin-3-yl)methyl)-4-(1-methylpyrrolidin-3-yloxy)pyrimidin-2-amine] | ≥ 50% | -10 to 10% | ++ (percentage of inhibition of central BZD site binding is greater than 80% in the presence of 1000 nM of the compound) | ≥ 50% | – | – | – | – | – | –
CN(C)CCNC1=CC(=O)N(Cc2c(-c3ccc(Br)cc3)nc3ccccn23)C1 [Compound 242, 1-((2-(4-bromophenyl)imidazo[1,2-a]pyridin-3-yl)methyl)-4-(2-(dimethylamino)ethylamino)-1H-pyrrol-2(5H)-one] | 10 to 50% | -10 to 10% | ++ (percentage of inhibition of central BZD site binding is greater than 80% in the presence of 1000 nM of the compound) | 10 to 50% | – | – | – | – | – | –
NC(=O)c1nccn1Cc1c(-c2ccc(Cl)cc2)nc2ccccn12 [Compound 76, 1-((2-(4-chlorophenyl)H-imidazo[1,2-a]pyridin-3-yl)methyl)-1H-imidazole-2-carboxamide] | – | – | ++ (percentage of inhibition of central BZD site binding is greater than 80% in the presence of 1000 nM of the compound) | – | 0 (percentage of potentiation is between about 10% to about −10%) | 6.7 ± 0.45 | 6.9 ± 0.35 | 6.3 ± 0.62 | + (percentage of potentiation is greater than or equal to 10% but less than 50% in the presence of 100 nM of the compound) | –
Fc1ccc(-c2nc3ccc(F)cn3c2Cn2nccn2)cc1 [Compound 60, 3-((2H-1,2,3-triazol-2-yl)methyl)-6-fluoro-2-(4-fluorophenyl)H-imidazo[1,2-a]pyridine] | – | – | ++ (percentage of inhibition of central BZD site binding is greater than 80% in the presence of 1000 nM of the compound) | – | 0 (percentage of potentiation is between about 10% to about −10%) | 6.3 ± 0.45 | 6.3 ± 0.70 | 6.0 ± 0.30 | + (percentage of potentiation is greater than or equal to 10% but less than 50% in the presence of 100 nM of the compound) | –
Cc1nnc2n1-c1ccc(Cl)cc1C(c1ccccc1)=NC2 [Alprazolam, reference compound] | – | – | – | – | – | – | – | – | – | Non-Suppressed Response Rates Mean ± S.E.M. ([6]; 0.003 mg/kg IV): 2.18 ± 0.26 Responses/Second; Suppressed Response Rates Mean ± S.E.M. ([6]; 0.003 mg/kg IV): 0.04 ± 0.02 Responses/Second; Non-Suppressed Response Rates Mean ± S.E.M. ([6]; 0.01 mg/kg IV): 2.62 ± 0.32 Responses/Second; Suppressed Response Rates Mean ± S.E.M. ([6]; 0.01 mg/kg IV): 0.76 ± 0.26 Responses/Second; Non-Suppressed Response Rates Mean ± S.E.M. ([6]; 0.03 mg/kg IV): 2.38 ± 0.36 Responses/Second; Suppressed Response Rates Mean ± S.E.M. ([6]; 0.03 mg/kg IV): 2.28 ± 0.55 Responses/Second; Non-Suppressed Response Rates Mean ± S.E.M. ([6]; 0.1 mg/kg IV): 1.16 ± 0.26 Responses/Second; Suppressed Response Rates Mean ± S.E.M. ([6]; 0.1 mg/kg IV): 1.44 ± 0.57 Responses/Second
